Data from US10787448B2, “Indolizino [3,2-C] quinoline-based fluorescent probe” (SEOUL NATIONAL UNIVERSITY R & DB FOUNDATION, priority 2015, dated 2020).
Entries after “also recorded” stand apart in the source; their conditions may differ. Like-named read-outs stand apart in the source and are kept apart here. Values belong to the compound of their own block, whether it stands above or below them.

Columns and labels:
[1] = in water; cited from earlier work
PDEδ [2] = target: T1, PDEδ (Homo sapiens, UniProt O43924); test: Confirmation of target protein using FRET; format: binding; details: irradiated with 280-nm light
T1 construct: made in house; host or cells: E. coli
Method: Therefore, to confirm whether the fluorescent material is able to selectively bind to a specific protein in a cell, fluorescence of the recombinant PDE and/or indolizino[3,2-c]quinoline compound, which is overexpressed in E. coli cells, followed by isolation and purification, was measured by being irradiated with 280-nm light.

[3] = Analysis of optical characteristics (absorption, fluorescence emission, quantum yield) in solvents; format: physicochemical
Outline: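 Optical properties of indolizinoquinoline compounds were examined in solvents. A 10 mM DMSO stock was diluted into the solvent, and fluorescence emission spectra were recorded at 20° C. on a JASCO FP-6500 spectrofluorometer. Absorption spectra were taken at room temperature on a Perkin Elmer Lamda 20 UV/VIS spectrometer. Fluorescence quantum yield (Φ) was determined.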

cells [4] = test: Comparison of fluorescence stability with conventionally developed dyes; format: cell-based
HeLa cells = test: Cell permeability: fluorescence imaging and live cell confocal imaging; format: cell-based; details: HeLa cells
Method: HeLa cells were seeded in a 96-well plate and incubated for 24 hours. The cells were treated with the indolizino[3,2-c]quinoline compounds, and incubated at 37° C. under a 5% CO2 condition for 30 minutes. After removal of the medium, the cells were washed with 1×DPBS. The washed cells were fixed with 4% formaldehyde at room temperature for 10 minutes, and washed with 1×DPBS. A cell image was screened using an Operetta HTS imaging system (PerkinElmer).
After HeLa cells were seeded to account for 70 to 80% of the area of a confocal dish (SPL life science) and overnight cultured, the indolizino[3,2-c]quinoline compounds (10 μM) prepared by mixing fresh DMEM after removal of the existing DMEM medium were dispensed, and the cells were incubated for 30 minutes to 1 hour at 37° C. Afterward, if needed, LysoTracker (50 nM) was mixed with DMEM to remove the existing medium and then dispensed to the cells, and the cells were incubated for 30 minutes at 37° C. After incubation, without washing, the cells were examined by a confocal laser microscope (Leica TCS SP8 SMD, Leica, Mannheim, Germany). However, when co-stained with a LysoTracker, the cells were washed with DPBS twice before the microscopy. […]

cells [5] = test: Co-staining / co-localization with DAPI, MitoTracker or LysoTracker; format: cell-based
[6] = test system: DNA oligomers (48 bp) tetO sequences; test: Binding to DNA by fluorescence spectrophotometer; details: hybridized tetO DNA oligomers added, 1 minute incubation
Method: Using a fluorescence spectrophotometer, it was confirmed whether the indolizino[3,2-c]quinoline compound of the present invention binds to DNA. First, DNA oligomers (48 bp) used in the experiment are tetO sequences, and the base sequences thereof are as follows.
The same molarities of oligomers were mixed while being heated at 95° C. for 5 minutes and cooled to room temperature for 2 hours to hybridize, the fluorescence of each of the indolizino[3,2-c]quinoline compounds of the present invention was measured, a corresponding equivalent of DNA oligomer was added to a cuvette, and then incubated while blocking light for 1 minute to measure fluorescence again.

PDEδ [7] = target: T1, PDEδ; test: Titration using fluorescence polarization; format: binding; details: Table 9
PDEδ [8] = target: T1, PDEδ; test: Titration using fluorescence polarization; format: binding; details: 0.5 μM compound, PDEδ protein from 0 to 32 μM
Method: To confirm whether the indolizino[3,2-c]quinoline compound can bind to a specific intracellular protein, in the presence of 0.5 μM of the indolizino[3,2-c]quinoline compound, titration was performed by increasing the concentration of the PDEδ protein from 0 to 32 μM to measure a polarization degree.

T1 sequence (O43924 whole entry): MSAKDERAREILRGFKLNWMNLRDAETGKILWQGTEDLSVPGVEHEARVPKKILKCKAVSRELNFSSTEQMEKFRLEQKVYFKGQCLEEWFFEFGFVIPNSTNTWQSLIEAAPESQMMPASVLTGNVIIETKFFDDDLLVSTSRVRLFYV

Structure (SMILES): O=c1cc(C(F)(F)F)c2cc3c4c(c2o1)CCCN4CCC3 [Coumarin 153]
quantum yield of the standard (Φ) [1]: 0.12

fluorescence change / binding to PDEδ by FRET (PDEδ [2]): low fluorescence intensity
fluorescence (intensity, in words) [3]: did not induce fluorescence
Structure (SMILES): O=[N+]([O-])c1ccc(-c2nc3ccccc3c3cc4ccccn4c23)cc1 [IQ 2, 6-(4-nitrophenyl)indolizino[3,2-c]quinoline]

fluorescence change / binding to PDEδ by FRET (PDEδ [2]): no change in fluorescence
fluorescence (intensity, in words) [3]: did not induce fluorescence
Structure (SMILES): Cc1cccn2c1cc1c3ccccc3nc(-c3ccc([N+](=O)[O-])cc3)c12 [IQ 13, 11-methyl-6-(4-nitrophenyl)indolizino[3,2-c]quinoline]

Structure (SMILES): CN(C)c1ccc(-c2nc3ccccc3c3cc4ccccn4c23)cc1 [IQ 36, 4-(indolizino[3,2-c]quinolin-6-yl)-N,N-dimethylaniline]
fluorescence stability compared with commercially available dyes (cells [4]): superior stability, compared to Sytoselect
intracellular molecule recognized (HeLa cells): recognized intracellular RNA
intracellular organelles in which fluorescence is detected (HeLa cells): intensively distributed in cytoplasmic and nucleolus areas
staining pattern compared with conventional dyes (cells [5]): an aspect similar to RNA select for staining RNA; also recorded: stains RNA in a pattern similar to the now currently available Sytoselect
staining pattern compared with conventional dyes (cells [5]; listed as Formula 12): works as a complementary stain with respect to DAPI

change in fluorescence intensity on addition of DNA oligomer [6]: Increase in fluorescence intensity
kmax em(nm) (PDEδ [7]): 530 nm
λabs(nm) (PDEδ [7]): 430 nm
quantum yield (Φ) ([3]; DW, standard Rhodamine 6G): 0.015
quantum yield (Φ) ([3]; EtOH, standard Coumarin 153): 0.350
Fluorescence Emission Intensity ([3]; H2O at 2 μM): 39.6
Peak emission wavelength λmax em(nm) ([3]; H2O at 2 μM, excited at the longest absorption maxima): 532 nm
Relative fluorescence Emission Intensitynorm ([3]; normalized fluorescence intensity, H2O at 2 μM): 0.17
Kd (PDEδ [8]): 0.643 µM
Structure (SMILES): c1ccc2cc(-c3nc4ccccc4c4cc5ccccn5c34)ccc2c1 [compound 10]
